Test: xn = mol fraction of the nth substance listed
Conditions: 101 kPa

O + CCCC[n+]1ccn(C)c1.F[P-](F)(F)(F)(F)F
x1 = 1
Conditions	viscosity [mPa·s]
298.15 K	0.894
308.15 K	0.717
313.15 K	0.659

CCCC[n+]1ccn(C)c1.F[P-](F)(F)(F)(F)F + O
viscosity [mPa·s]
Conditions	298.15 K	303.15 K	308.15 K	313.15 K	318.15 K
x1 = 0.0003	0.909	0.809	0.72	0.662	0.604
x1 = 0.0006	0.917	0.815	0.725	0.667	0.609
x1 = 0.001	0.923	0.822	0.73	0.672	0.614
x1 = 0.0013	–	0.83	0.737	0.678	0.62
